By IC50 is commonly meant the concentration needed to halve the response being measured.

4 compounds from ChEMBL document CHEMBL1135267 (Bioorg Med Chem Lett, 2002) can be followed below.

Structures are written as SMILES.

In this assay the target is T1, Aromatase (Homo sapiens, UniProt P11511).
T1 sequence (P11511 whole entry): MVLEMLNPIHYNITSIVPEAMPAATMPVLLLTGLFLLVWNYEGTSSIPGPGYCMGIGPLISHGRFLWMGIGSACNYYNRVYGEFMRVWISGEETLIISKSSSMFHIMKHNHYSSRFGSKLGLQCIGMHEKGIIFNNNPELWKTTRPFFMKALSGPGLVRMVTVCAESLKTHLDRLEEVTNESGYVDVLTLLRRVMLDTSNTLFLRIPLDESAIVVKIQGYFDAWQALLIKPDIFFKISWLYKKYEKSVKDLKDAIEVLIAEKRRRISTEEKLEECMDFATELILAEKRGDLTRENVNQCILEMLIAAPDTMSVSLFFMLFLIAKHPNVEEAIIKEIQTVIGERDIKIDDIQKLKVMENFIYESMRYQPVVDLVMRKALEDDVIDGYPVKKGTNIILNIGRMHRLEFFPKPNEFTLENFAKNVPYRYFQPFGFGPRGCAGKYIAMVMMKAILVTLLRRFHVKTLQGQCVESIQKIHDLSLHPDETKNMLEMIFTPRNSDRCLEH
The compound `COc1ccc2c(c1)OC(c1ccccc1)/C(=C/c1ccncc1)C2=O` (mixture of isomers) gave an IC50 of 1600 nM.

`O=C1/C(=C/c2ccncc2)C(c2ccccc2)Oc2ccccc21` (centres undefined) registered an IC50 of 800 nM.

`O=C1/C(=C\c2ccncc2)C(c2ccccc2)Oc2ccccc21` (mixture of isomers): the IC50 stood at 3300 nM.

For the compound `COc1ccc2c(c1)OC(c1ccccc1)/C(=C\c1ccncc1)C2=O` (centres undefined), the IC50 worked out at 620 nM.
